Reference: patent publication US9193989B2, “PRPK-TPRKB modulators and uses thereof” (TAIHO PHARMACEUTICAL CO., LTD., priority 2010, dated 2015)

Tests used:
PRPK/TPRKB = biological target: T1, PRPK/TPRKB (Homo sapiens, UniProt Q96S44+Q9Y3C4); test: Competition for PRPK/TPRKB binding to the pomalidomide-based affinity reagent (affigel pulldown); settings: FIG. 4; excess free competitor
T1 construct: host or cells: HEK-293FT
Procedure: Cell lysates were prepared from 2×10^8 Jeko-1, Jurkat, or HS-Sultan cells or 5×10^7 HeLa S3 cells per pulldown sample by lysis in 2 mL Buffer B (50 mM HEPES pH 7.5, 5% glycerol, 1.5 mM MgCl2, 150 mM NaCl, 1 mM Na3VO4, 25 mM NaF, 0.4% Nonidet P-40, 1 mM DTT, and 1 Complete Mini EDTA-free protease inhibitor tablet per 10-25 mL Buffer B). Lysates were incubated on ice for 30 mM, followed by 2× freeze-thaw using liquid N2 and 37° C. water bath in polypropylene tubes. Samples were centrifuged at 1800 rpm for 5 mM at 4° C. Supernatants were ultracentrifuged at 55,000 rpm for 1 hr at 4° C. Supernatants were collected and pre-cleared with 10 μL control affigel reagent (affigel-ethanolamine or affigel-PEG linker) by incubation on a rotator for 30 mM at 4° C. Pre-cleared lysates were transferred to Mobicol 1 mL columns with 90 μm pore size frit on ice and centrifuged at 0.1 rcf for 10 sec to separate affigel beads from lysates. Incubations with pre-cleared lysates and excess pomalidomide were performed at a 20-fold excess competitor concentration (500 μM final concentration) on a rotator for 30 mM at 4° C. Subsequently, 10 μL control or pomalidomide-based affigel reagents were added to each sample and pulldowns were performed for 1 hr at 4° C. Lysates and affigel reagents were transferred to Mobicol 1 mL columns with 90 μm pore size frit and affigel beads were washed 3× with 800 μL Buffer B and 2× with 800 μL Buffer A (Buffer B not including 0.4% Nonidet P-40). Columns were centrifuged for 30 sec at 0.1 rcf to remove any remaining wash buffer and then closed with lower plug. Columns were placed in 1.5 mL Low-binding Eppendorf tubes and heated at 50° C. for 30 mM in 40 uL 2×SDS sample buffer with 10 mM DTT to elute bound proteins from affigel reagents. Columns were then opened and eluents were collected in the low-binding Eppendorf tubes by 15 sec centrifugation at 1600 rpm. Samples were applied and resolved on 4-12% SDS-PAGE gels followed by silver staining (SilverQuest Kit, Invitrogen, Carlsbad, Calif.). Bands which were competed by excess actimid competitor but not by DMSO were excised and identified by LC/MS/MS analysis at the Beth Israel Deaconess Medical Center Mass Spectrometry Core Facility (Boston, Mass.).
C-term Myc-DDK tagged PRPK and C-term Myc-DDK tagged TPRKB proteins were transiently overexpressed from cDNAs (obtained from Origene, Rockville, Md.) in HEK-293FT cells using FuGENE-6 transfection reagent according to the manufacturer's protocol (Roche, Indianapolis, Ind.). One day prior to transfection, 2.5×10^6 HEK-293FT cells were plated per p100 dish. Cells were lysed 48 hr post-transfection in 1-2 mL Buffer B per p100 dish per sample. […] The amount of PRPK and TPRKB captured by each affinity reagent was determined by silver stain and anti-DDK (anti-DDK monoclonal antibody, Origene) Western blot. Competition experiments were also performed using a variety of compounds and derivatives (pomalidomide, lenalidomide, thalidomide, CMPD 31, CMPD 30, CMPD 29).

[1] = system: natural killer cells in PBMCs; test: Natural killer cell assay (DELFIA NK lytic activity); assay type: cell-based, human; settings: FIG. 9; anti-CD3 stimulated PBMCs, 72 hours
Procedure: On the day of initial treatment, cryopreserved peripheral blood mononuclear cells from a healthy donor (PBMCs; Astarte Biologics) were thawed in RPMI-1640 containing 10% fetal bovine serum, 1% penicillin-streptomycin and 25 mM HEPES buffer (complete medium) at 37° C. PBMCs were centrifuged two times at 1000 rpm to remove residual DMSO and debris and counted on a haemocytometer. Cells were used at a final cell density of 1×10^6 cells per mL in complete medium. […]
Following the 72 hour treatment, NK cells were assayed for lytic activity using the DELFIA cell cytoxicity assay from Perkin-Elmer according to manufacturer's instructions. […] K562 cells were resuspended in DMEM containing 10% fetal bovine serum and 1% penicillin-streptomycin, counted on a hemacytometer and diluted to 1×10^6 cells per mL. […] Europium solution (200 μL) was added to the supernatants and the plate was placed on a Wallac Victor microplate reader. Following a 15 minute orbital shake at high speed, the plate was read using time-resolved fluorescence (Excitation at 340 nm, Emission at 615 nm; delay 400 μsec; counting window 400 μsec, cycle 1000 μsec). […]

B cell growth = test: Growth inhibition assay, inhibition with CMPD 31; assay type: cell-based; settings: FIG. 8; CMPD 31 at final concentration of 10 μM
Procedure: This protocol describes the technique to perform growth inhibition assays in 96-well format. This assay was used to calculate growth inhibition IC50 values of lenalidomide, pomalidomide, all derivatives and inhibition with CMPD31.
Cell lines Jurkat, NCI-H929, and JeKo-1 were obtained from ATCC and were maintained by vendor-specified media requirements. Cells were plated in 96-well plates at 3,750 cells per well (Jeko-1, HS-Sultan) or 5,000 cell per well (NCI-H929) in 90 μL of assay growth medium (RPMI-1640, 10% FBS, 1% pen-strep). Cells in plates were allowed to incubate at room temperature for one hour and then transferred to an incubator set at 37° C. and 5% CO2 humidified air overnight.
Compounds were serially diluted 3-fold in 100% DMSO into duplicate 10-point dose curves using a Biomek FX liquid handler in columns 2 through 11 of a 96-well U-bottom plate. Starting concentrations of compounds was 10 mM. Daughter plates containing 2 μL of the compound dose curves were stamped and stored at −80 C. […]
Compound and control daughter plates were diluted 100-fold in 200 μl of assay growth medium and then finally diluted 10-fold more into the 96-well cell plates; a final dilution of 1000-fold in 0.1% DMSO for all wells. […] Plates were incubated for 2 hours at 37° C. in 5% CO2 and then plates were read on a Perkin Elmer Victor^3 V plate reader with excitation at 560 nm and emission at 590 nm. […]

[2] = system: IL-2 production by Jurkat and PBMCs; test: IL-2 production assay, inhibition with CMPD 31; assay type: cell-based, human; settings: FIG. 8; CMPD 31 at final concentration of 10 μM
Source text: This protocol describes the technique to detect the amount of IL-2 produced by Jurkat and PBMCs in 96-well format. This assay was used to calculate IL-2 production EC50 values of lenalidomide, pomalidomide, all derivatives and inhibition with CMPD 31.
Logarithmically growing Jurkat cells from ATCC (clone E6-1) or frozen and thawed human PBMCs from Astarte (Peripheral Blood Mononuclear Cells, normal Donor 41) were resuspended at 1×10^6 cells/mL in RPMI-1640 medium containing 10% FBS and 1% antibiotic/antimycotic solution. Cells were plated into each well of a 96-well anti-CD3 plate (Becton Dickinson catalogue number #354725) at 1×10^5 cells/100 μl per well. […]
Compound daughter plates were resuspended in 200 μL of RPMI-1640 medium as a 10× stock and then 20 μL of the 10× stock was added to each anti-CD3 antibody assay plate well with a final volume of 200 μl by the addition of 80 μl of complete media. […] The amount of IL-2 produced was determined by an ELISA assay and was performed in one of two ways as per manufacturer instructions; by a standard ELISA (Enzyme-Linked Immunosorbent Assay) protocol method (Becton Dickinson) or an AlphaLISA protocol (Perkin Elmer). […]

T1 sequence (Q96S44 whole entry, other chains not shown): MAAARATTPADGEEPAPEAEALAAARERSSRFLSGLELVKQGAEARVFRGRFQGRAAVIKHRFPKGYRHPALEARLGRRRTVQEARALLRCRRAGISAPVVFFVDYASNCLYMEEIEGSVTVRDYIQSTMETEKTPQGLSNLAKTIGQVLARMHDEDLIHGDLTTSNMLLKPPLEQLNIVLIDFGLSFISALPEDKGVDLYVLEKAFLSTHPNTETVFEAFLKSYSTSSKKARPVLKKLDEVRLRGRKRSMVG

SMILES | compete for PRPK/TPRKB target binding to the pomalidomide-based affinity reagent (PRPK/TPRKB) | natural killer cell activation in PBMCs [1] | suppression of the activity of lenalidomide and pomalidomide in inhibition of B cell growth (B cell growth) | suppression of the activity of lenalidomide and pomalidomide in induction of IL-2 production [2]
CN1C(=O)CCC(N2C(=O)c3cccc(N)c3C2=O)C1=O (stereo not shown) [CMPD 29, 4-Amino-2-(1-methyl-2,6-dioxopiperidin-3-yl)isoindoline-1,3-dione] | compete |  |  | 
Nc1cccc2c1C(=O)N(C1CCC(=O)NC1=O)C2=O (stereo not shown) [pomalidomide] | compete | activation |  | 
O=C1CCC(N2C(=O)c3ccccc3C2=O)C(=O)N1 (stereo not shown) [thalidomide] | compete |  |  | 
Nc1cccc2c1C(=O)N([C@H]1CCC(=O)NC1)C2=O [CMPD 30, (S)-4-Amino-2-(6-oxopiperidin-3-yl)isoindoline-1,3-dione] | does not |  |  | 
Nc1cccc2c1CN(C1CCC(=O)NC1=O)C2=O (stereo not shown) [lenalidomide] | compete | activation |  | 
Nc1ccc2c(c1)C(=O)N(C1CCC(=O)NC1=O)C2=O (stereo not shown) [CMPD 31] | compete |  | suppresses | suppresses
